From PubChem BioAssay (NCI) come the findings set out here.

Common to all, as to assay: NCI anticancer screen, dose series, 48 h
For experiment [1], the system named is K-562 leukemia.
Experiment [2] relates to OVCAR-8 ovarian.
In experiment [3] the test system is SNB-75 CNS.
Experiment [4] relates to MDA-MB-435.
Experiment [5] concerns RPMI-8226 leukemia.
Experiment [6] deals with HT29 colon.
The subject of experiment [7] is HOP-62 NSCLC.
The test system of experiment [8] is SW-620 colon.
Experiment [9] has as its system HCC-2998 colon.
The test system of experiment [10] is HOP-92 NSCLC.

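Tested at 5 concentrations; 48 h exposure; 96-well plates; endpoints linearly interpolated, else capped at highest concentration. GI50 is the concentration that inhibits growth by half. Definition used: TGI = concentration required for complete inhibition of growth.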 Some results are limits rather than exact numbers.

`CC1(C)N=C(N)N=C(N)N1c1ccc(CCCCc2ccc(Cl)c(S(=O)(=O)F)c2)c(Cl)c1`: the GI50 in experiment [1] is 0.127 µM; in experiment [2], 0.557 µM; in experiment [3], 10.4 µM; in experiment [4], 0.431 µM; in [5], 0.527 µM; in experiment [6], 0.264 µM. For the same molecule, the GI50 is 5.82 µM in [7], 0.147 µM in experiment [8], 0.922 µM in experiment [9] and 1.08 µM in [10]. Further, the TGI in experiment [1] was 15.8 µM; in [2], 24.5 µM; in experiment [3], greater than 52.5 µM; in experiment [4], 18.7 µM; in experiment [5], 3.32 µM; in experiment [6], 15.7 µM. Also, the TGI in experiment [7] was greater than 43.7 µM; in experiment [8] it was 15.4 µM; in experiment [9], 15.1 µM; in experiment [10] it was 15.2 µM.
In the case of `COc1cc2c3c(c1OC)-c1cc4c(cc1CC3(C#N)N(C(=O)c1ccccc1)CC2)OCO4` (stereo unspecified), the TGI in experiment [1] is greater than 100 µM; in experiment [2], greater than 74.2 µM; in experiment [3], 28.1 µM; in experiment [4] it was greater than 100 µM; in experiment [5], greater than 100 µM; in [6], greater than 100 µM. Further, the TGI was greater than 76.1 µM in experiment [7], greater than 100 µM in experiment [8], greater than 100 µM in experiment [9] and 32.5 µM in [10].
As to `COC12C(COC(N)=O)C3=C(C(=O)C(C)=C(N)C3=O)N1CC1C2N1C` (stereo unspecified), the TGI in experiment [1] was 179 µM; in [2] it was 53.1 µM; in experiment [3] it was 11.8 µM; in experiment [4], 28.1 µM; in experiment [5], greater than 85.5 µM; in [6] it was 43.2 µM. Further, the TGI in experiment [7] turned out to be 16.8 µM; in [8] it was 35.8 µM; in experiment [9] it was 16.7 µM; in experiment [10], 36.4 µM.
Turning to `O=C(CNS(=O)(=O)Cc1ccccc1)NNc1ccccc1`, the TGI in experiment [1], in [2], in experiment [3], in experiment [4], in experiment [5] and in experiment [6] was greater than 100 µM each time. Further, the TGI in experiment [7], in [8], in [9] and in experiment [10] was greater than 100 µM in each case.
`C[C@@]12CCC[C@@](C)(C(=O)O)C1CC[C@]13CC(=O)[C@](CO)(C1)[C@@H](O)CC32` (stereo partly specified): the GI50 in experiment [1], in experiment [2], in experiment [3], in experiment [4], in experiment [5] and in experiment [6] was greater than 100 µM each time. The GI50 in experiment [7], in [8], in [9] and in experiment [10] was greater than 100 µM in each case. Also, the TGI in [1], in experiment [2], in [3], in [4], in [5] and in experiment [6] was greater than 100 µM in each case. Besides, the TGI in experiment [7], in [8], in experiment [9] and in experiment [10] was greater than 100 µM throughout.
For `COc1ccc(C2=C(c3ccc(OC)cc3)C(=O)N3CCCC3C2)cc1` (stereo unspecified), the TGI in experiment [1] was greater than 100 µM; in [2], greater than 100 µM; in experiment [3], greater than 72.7 µM; in experiment [4], greater than 100 µM; in experiment [5], greater than 100 µM; in experiment [6], greater than 100 µM. Moreover, the TGI in experiment [7] was greater than 100 µM; in [8] it was greater than 100 µM; in experiment [9], 93.4 µM; in experiment [10], greater than 100 µM. The GI50 is 10.4 µM in experiment [2]; 15.6 µM in experiment [3]; 12.3 µM in experiment [4]; greater than 100 µM in experiment [5]; 6.19 µM in experiment [6]; 16.5 µM in experiment [7]. For the same molecule, the values for the GI50 in [8], in [9] and in experiment [10] were 15.4 µM, 26.4 µM and greater than 95.1 µM, respectively.
As for `CCc1ccc(/C=C/c2ccc(O)c3ncccc23)[n+](C)c1`, the GI50 in experiment [1] is 0.517 µM; in experiment [2], 0.668 µM; in experiment [3] it was greater than 100 µM; in experiment [4], 4.49 µM; in experiment [5], 3.08 µM; in experiment [6], greater than 29.3 µM. Besides, the GI50 in experiment [8] is 4.47 µM; in [9], greater than 30.5 µM; in experiment [10] it was 0.0293 µM. Besides, the TGI in experiment [1], in [2], in [3], in experiment [4], in experiment [5] and in [6] was greater than 100 µM each time. Moreover, the TGI was greater than 100 µM in experiment [7], greater than 100 µM in experiment [8], greater than 100 µM in experiment [9] and 3.54 µM in [10].
With `CN(C)C(=S)Sc1ccc([N+](=O)[O-])cc1[N+](=O)[O-]`, the GI50 in experiment [1] was 1.06 µM; in experiment [2] it was 3.27 µM; in [3] it was 7.53 µM; in [4] it was 1.54 µM; in [5], 1.39 µM; in experiment [6], 0.325 µM. Further, the GI50 in experiment [7] is 8.26 µM; in experiment [8], 1.1 µM; in [9], 6.9 µM; in experiment [10] it was 2.95 µM. The TGI in [1] came out at 25.6 µM; in experiment [2] it was 12 µM; in experiment [3] it was 20.5 µM; in [4], 5.36 µM; in [5] it was 6.79 µM; in [6], 1.67 µM. Also, the TGI amounted to 21.3 µM in experiment [7], 2.79 µM in experiment [8], 17.4 µM in [9] and 11.2 µM in experiment [10].
Turning to `Nc1c(C(=O)c2ccccc2)cnn1-c1ccc(F)cc1`, the GI50 in experiment [1], in [2], in experiment [3], in experiment [4], in experiment [5] and in experiment [6] was greater than 25 µM each time. Also, the GI50 in experiment [7] is greater than 25 µM; in experiment [8] it was greater than 25 µM; in experiment [9], greater than 25 µM; in [10], greater than 19.3 µM. Also, the TGI in experiment [1], in [2], in experiment [3], in experiment [4], in experiment [5] and in experiment [6] was greater than 25 µM in each case. In addition, the TGI in [7], in experiment [8], in experiment [9] and in experiment [10] was greater than 25 µM throughout.
With `COC(=O)c1ccc2c(c1)/C(=C\c1cc(Br)c(O)c(Br)c1)C(=O)N2`, the GI50 in experiment [1] is 8.14 µM; in experiment [2] it was 13 µM; in experiment [3], 5.4 µM; in experiment [4], 3.1 µM; in experiment [5] it was 5.21 µM; in experiment [6] it was 4.3 µM. The GI50 in experiment [7] was 10.5 µM; in experiment [8], 8.4 µM; in [9], 8.23 µM; in experiment [10] it was 2.45 µM. The TGI in [1] was greater than 25 µM; in experiment [2], greater than 25 µM; in [3], greater than 25 µM; in experiment [4], greater than 19.4 µM; in [5] it was greater than 25 µM; in experiment [6], greater than 25 µM. The TGI is greater than 25 µM in [7], greater than 25 µM in [8], greater than 25 µM in [9] and 17.4 µM in experiment [10].
Regarding `CN(C)c1ccc(N=Nc2ccccn2)c(O)c1`, the GI50 was 0.355 µM in experiment [1]; 0.321 µM in [2]; 0.453 µM in experiment [3]; 0.556 µM in experiment [4]; 0.348 µM in experiment [5]; 0.415 µM in [6]. For the same molecule, the GI50 in experiment [7] was 0.311 µM; in experiment [8], 0.419 µM; in [9] it was 0.376 µM; in experiment [10], 0.666 µM. Also, the TGI in experiment [1] is greater than 100 µM; in experiment [2] it was greater than 100 µM; in experiment [3], 96.9 µM; in experiment [4], greater than 100 µM; in [5], greater than 100 µM; in experiment [6], greater than 100 µM. In addition, the TGI in [7] is greater than 54 µM; in experiment [8] it was greater than 100 µM; in experiment [9], greater than 100 µM; in experiment [10] it was 50.2 µM.
For the molecule `Cn1c(Nc2ccc(C(F)(F)F)cc2)nc2cc(Oc3ccnc(-c4ncc(C(F)(F)F)[nH]4)c3)ccc21`, the GI50 is 1.76 µM in experiment [1]; 0.775 µM in experiment [2]; 0.297 µM in experiment [3]; 0.0774 µM in experiment [4]; 1.49 µM in experiment [5]; 0.124 µM in experiment [6]. Further, the GI50 in experiment [7] is 2.85 µM; in experiment [8], 0.578 µM; in experiment [9], 1.25 µM; in [10], 0.408 µM. Besides, the TGI in experiment [1] was found to be 25 µM; in experiment [2], 14.1 µM; in experiment [3] it was 26.2 µM; in experiment [4], 9.44 µM; in experiment [5], 15.2 µM; in experiment [6], 3.56 µM. Further, the TGI amounted to 18.6 µM in experiment [7], 12.7 µM in experiment [8], 13.1 µM in [9] and 7.26 µM in experiment [10].
Consider `C#Cc1nc(Nc2cc(C)[nH]n2)c2ccccc2n1`, for which the GI50 is 0.349 µM in experiment [1]; 0.325 µM in [2]; 0.167 µM in experiment [3]; 0.213 µM in [4]; 0.0835 µM in experiment [5]; 0.356 µM in experiment [6]. Also, the GI50 was 0.327 µM in [8], 0.216 µM in experiment [9] and 0.293 µM in [10]. Moreover, the TGI in [1] was greater than 100 µM; in experiment [2], greater than 100 µM; in [3], 0.513 µM; in experiment [4], 0.563 µM; in [5], 0.46 µM; in [6] it was 11.3 µM. The TGI in experiment [8] came to 1.3 µM; in experiment [9], 0.466 µM; in experiment [10], 1.25 µM.
In the case of `C=COC(=O)N[C@H]1CCc2cc(OC)c(OC)c(OC)c2-c2ccc(SC)c(=O)cc21`, the TGI in experiment [1] was greater than 31.6 µM; in experiment [2], greater than 80.7 µM; in [3] it was 14.4 µM; in experiment [4] it was less than 0.01 µM; in experiment [5], 52.1 µM; in [6] it was 0.149 µM. In addition, the TGI is greater than 86.6 µM in [7], greater than 100 µM in experiment [8], 85.6 µM in experiment [9] and 22.8 µM in [10].
On to `CN(C)CCC(=O)C(=Cc1ccc(O)cc1)C(=O)CCN(C)C`, for which the GI50 was greater than 100 µM in [2]; greater than 100 µM in experiment [3]; greater than 100 µM in experiment [4]; 27.8 µM in experiment [5]; 34.4 µM in [6]; greater than 100 µM in experiment [7]. In addition, the GI50 in [8] was 67.2 µM; in [9], greater than 100 µM; in experiment [10] it was 95.6 µM. Moreover, the TGI in [2], in experiment [3], in experiment [4], in experiment [5], in experiment [6] and in [7] was greater than 100 µM each time. Further, the TGI in [8], in [9] and in [10] was greater than 100 µM in each case.
Take `O=C(/C=C/C=C/c1ccccc1)c1ccccc1`: the TGI in experiment [1] was found to be 66.2 µM; in experiment [2], 26.1 µM; in [3] it was 41.9 µM; in experiment [4], 34.2 µM; in experiment [5] it was 72.5 µM; in [6] it was 30.8 µM. For the same molecule, the figures for the TGI in experiment [8], in experiment [9] and in experiment [10] were 30.3 µM, 31.7 µM and 39.1 µM, respectively.
For `O=[N+]([O-])c1ccc(CI)cc1`, the GI50 in [1] is 0.404 µM; in experiment [2], 3.71 µM; in experiment [3], 3.27 µM; in experiment [4], 2.89 µM; in [5], 2.3 µM; in [7], 3.38 µM. Further, the GI50 is 0.803 µM in experiment [8], 3.43 µM in [9] and 4.25 µM in experiment [10]. Besides, the TGI in experiment [1] came to 2.95 µM; in [2] it was 13.3 µM; in experiment [3] it was 15.5 µM; in experiment [4] it was 9.62 µM; in experiment [5] it was 5.68 µM; in experiment [7], 12.5 µM. For the same molecule, the TGI worked out at 3.22 µM in [8], 11.8 µM in experiment [9] and 16.5 µM in experiment [10].
